Results: patent publication US20220081412A1, “QUINOLINYL-PYRAZINE-CARBOXAMIDE COMPOUNDS AND USES THEREOF” (The Regents of the University of Michigan, priority 2018, published 2022)

Tested on: MIA PaCa-2 cells
Assay: Bru-seq analysis for nascent RNA synthesis (log2FC of genes, GSEA gene sets)
Type: cell-based, human
[1] = downregulated gene sets, TFBT, 4 h, MIA PaCa-2 cells
[2] = gene set ADDYA_ERYTHROID_DIFFERENTIATION_BY_HEMIN, 4 h
[3] = gene set AMIT_SERUM_RESPONSE_60_MCF10A, 4 h
[4] = gene set BURTON_ADIPOGENESIS_10, 4 h
[5] = gene set CHANG_CORE_SERUM_RESPONSE_DN, 4 h
[6] = gene set CUI_GLUCOSE_DEPRIVATION, 4 h
[7] = gene set DACOSTA_UV_RESPONSE_VIA_ERCC3_UP, 4 h
[8] = gene set DAZARD_RESPONSE_TO_UV_NHEK_UP, 4 h
[9] = gene set DIRMEIER_LMP1_RESPONSE_EARLY, 4 h
[10] = gene set ENK_UV_RESPONSE_KERATINOCYTE_UP, 4 h
[11] = gene set GEORGANTAS_HSC_MARKERS, 4 h
[12] = gene set GO_ALCOHOL_BIOSYNTHETIC_PROCESS, 4 h
[13] = gene set GO_ALCOHOL_METABOLIC_PROCESS, 4 h
[14] = gene set GO_CELLULAR_LIPID_CATABOLIC_PROCESS, 4 h
[15] = gene set GO_CELLULAR_RESPONSE_TO_TOPOLOGICALLY_INCORRECT_PROTEIN, 4 h
[16] = gene set GO_CHROMATIN_ASSEMBLY_OR_DISASSEMBLY, 4 h
[17] = gene set GO_DNA_PACKAGING_COMPLEX, 4 h
[18] = gene set GO_ER_NUCLEUS_SIGNALING_PATHWAY, 4 h
[19] = gene set GO_FATTY_ACID_BIOSYNTHETIC_PROCESS, 4 h
[20] = gene set GO_INTRINSIC_COMPONENT_OF_ENDOPLASMIC_RETICULUM_MEMBRANE, 4 h
[21] = gene set GO_IRE1_MEDIATED_UNFOLDED_PROTEIN_RESPONSE, 4 h
[22] = gene set GO_ISOPRENOID_BIOSYNTHETIC_PROCESS, 4 h
[23] = gene set GO_LYSOSOMAL_LUMEN, 4 h
[24] = gene set GO_NUCLEAR_NUCLEOSOME, 4 h
[25] = gene set GO_ORGANIC_HYDROXY_COMPOUND_BIOSYNTHETIC_PROCESS, 4 h
[26] = gene set GO_PROTEIN_DNA_COMPLEX, 4 h
[27] = gene set GO_PROTEIN_DNA_COMPLEX_SUBUNIT_ORGANIZATION, 4 h
[28] = gene set GO_REGULATION_OF_ENDOPLASMIC_RETICULUM_STRESS_INDUCED_INTRINSIC_APOPTOTIC_SIGNALING_PATHWAY, 4 h
[29] = gene set GO_RESPONSE_TO_ENDOPLASMIC_RETICULUM_STRESS, 4 h
[30] = gene set GO_RESPONSE_TO_TOPOLOGICALLY_INCORRECT_PROTEIN, 4 h
[31] = gene set GO_SMALL_MOLECULE_BIOSYNTHETIC_PROCESS, 4 h
[32] = gene set GO_STEROID_BIOSYNTHETIC_PROCESS, 4 h
[33] = gene set GO_STEROID_METABOLIC_PROCESS, 4 h
[34] = gene set GO_STEROL_BIOSYNTHETIC_PROCESS, 4 h
[35] = gene set GO_STEROL_METABOLIC_PROCESS, 4 h
[36] = gene set HALLMARK_ADIPOGENESIS, 4 h
[37] = gene set HALLMARK_ANDROGEN_RESPONSE, 4 h
[38] = gene set HALLMARK_APOPTOSIS, 4 h
[39] = gene set HALLMARK_CHOLESTEROL_HOMEOSTASIS, 4 h
[40] = gene set HALLMARK_COAGULATION, 4 h
[41] = gene set HALLMARK_DNA_REPAIR, 4 h
[42] = gene set HALLMARK_EPITHELIAL_MESENCHYMAL_TRANSITION, 4 h
[43] = gene set HALLMARK_ESTROGEN_RESPONSE_EARLY, 4 h
[44] = gene set HALLMARK_ESTROGEN_RESPONSE_LATE, 4 h
[45] = gene set HALLMARK_FATTY_ACID_METABOLISM, 4 h
[46] = gene set HALLMARK_GLYCOLYSIS, 4 h
[47] = gene set HALLMARK_HEME_METABOLISM, 4 h

`CCN(CC)CCCC(C)Nc1cnc(C(=O)Nc2cc(C)cc3cccnc23)cn1` (stereo not drawn) [J4, 5-((5-(diethylamino)pentan-2-yl)amino)-N-(6-methylquinolin-8-yl)pyrazine-2-carboxamide] was tested, and the “ES PBX1_02” value [1] was −0.282, the “ES PIT1_Q6” value [1] was −0.263 and the “ES POU1F1_Q6” value [1] was −0.236. The “ES TAANNYSGCG_UNKNOWN” value [1] was −0.253, the “ES TAAWWATAG_RSRFC4_Q2” value [1] was −0.271 and the “ES TAAYNRNNTCC_UNKNOWN” value [1] was −0.314. The “ES YKACATTT_UNKNOWN” value [1] was −0.221, the “NES BRN2_01” value [1] was −1.086 and the “NES CDPCR1_01” value [1] was −1.030. For the same compound, the “NES CDP_01” value [1] was −1.041, the “NES EN1_01” value [1] was −1.062 and the “NES FOXJ2_02” value [1] was −1.154. For the same compound, the “NES GGCKCATGS_UNKNOWN” value [1] was −1.621, the “NES HMEF2_Q6” value [1] was −1.037 and the “NES HNF1_Q6” value [1] was −1.145. The “NES HOX13_01” value [1] was −1.144, the “NES IK1_01” value [1] was −1.074 and the “NES IRF2_01” value [1] was −1.322. The “NES MEF2_02” value [1] was −0.965, the “NES MEF2_Q6_01” value [1] was −0.985 and the “NES MEIS1BHOXA9_01” value [1] was −1.269. The “NES NKX3A_01” value [1] was −1.213, the “NES PAX8_01” value [1] was −1.304 and the “NES PBX1_02” value [1] was −1.130. For the same compound, the “NES PIT1_Q6” value [1] was −1.156, the “NES POU1F1_Q6” value [1] was −1.032 and the “NES TAANNYSGCG_UNKNOWN” value [1] was −1.012. For the same compound, the “NES TAAWWATAG_RSRFC4_Q2” value [1] was −1.112, the “NES TAAYNRNNTCC_UNKNOWN” value [1] was −1.303 and the “NES YKACATTT_UNKNOWN” value [1] was −1.039. It also gave an ES [2] of 0.708, an NES [2] of 2.307 and an ES [3] of 0.728. It also gave an NES [3] of 2.228, an ES [4] of 0.790 and an NES [4] of 2.254. The ES [5] was 0.624, the NES [5] was 2.370 and the ES [6] was 0.760. For the same compound, the NES [6] was 2.383, the ES [7] was 0.569 and the NES [7] was 2.301. For the same compound, the ES [8] was 0.602, the NES [8] was 2.291 and the ES [9] was 0.764. It also gave an NES [9] of 2.410, an ES [10] of 0.590 and an NES [10] of 2.464. For the same compound, the ES [11] was 0.736, the NES [11] was 2.234 and the ES [12] was 0.728. It also gave an NES [12] of 2.531, an ES [13] of 0.543 and an NES [13] of 2.127. For the same compound, the ES [14] was 0.577, the NES [14] was 2.080 and the ES [15] was 0.635. It also gave an NES [15] of 2.333, an ES [16] of 0.576 and an NES [16] of 2.165. The ES (gene set GO_DNA_PACKAGING, 4 h) was 0.570, the NES (gene set GO_DNA_PACKAGING, 4 h) was 2.161 and the ES [17] was 0.755. The NES [17] was 2.422, the ES [18] was 0.739 and the NES [18] was 2.156. For the same compound, the ES [19] was 0.626, the NES [19] was 2.043 and the ES [20] was 0.577. For the same compound, the NES [20] was 2.075, the ES [21] was 0.690 and the NES [21] was 2.300. The ES [22] was 0.796, the NES [22] was 2.093 and the ES [23] was 0.637. It also gave an NES [23] of 2.060, an ES [24] of 0.832 and an NES [24] of 2.218. It also gave an ES [25] of 0.651, an NES [25] of 2.372 and an ES [26] of 0.619. For the same compound, the NES [26] was 2.288, the ES [27] was 0.521 and the NES [27] was 2.041. For the same compound, the ES [28] was 0.774, the NES [28] was 2.132 and the ES [29] was 0.526. It also gave an NES [29] of 2.067, an ES [30] of 0.616 and an NES [30] of 2.337. It also gave an ES [31] of 0.555, an NES [31] of 2.227 and an ES [32] of 0.784. The NES [32] was 2.632, the ES [33] was 0.667 and the NES [33] was 2.432. The ES [34] was 0.878, the NES [34] was 2.656 and the ES [35] was 0.748. The NES [35] was 2.604, the ES [36] was 0.465 and the NES [36] was 1.784. For the same compound, the ES [37] was 0.529, the NES [37] was 1.875 and the ES [38] was 0.485. It also gave an NES [38] of 1.804, an ES [39] of 0.759 and an NES [39] of 2.533. It also gave an ES [40] of 0.516, an NES [40] of 1.624 and an ES [41] of 0.377. The NES [41] was 1.422, the ES [42] was 0.407 and the NES [42] was 1.436. The ES [43] was 0.458, the NES [43] was 1.719 and the ES [44] was 0.443. It also gave an NES [44] of 1.631, an ES [45] of 0.551 and an NES [45] of 2.054. The ES [46] was 0.417, the NES [46] was 1.603 and the ES [47] was 0.389. The NES [47] was 1.480, the ES (gene set HALLMARK_HYPOXIA, 4 h) was 0.591 and the NES (gene set HALLMARK_HYPOXIA, 4 h) was 2.235.
